We go through one compound from publication PMC13047053, “Crystal structure of human INPP5K with an allosteric inhibitor reveals the structural basis for species specific potency” (Scientific Reports, 2026).

By IC50 is commonly meant the concentration needed to halve the response being measured. A high value points to weaker potency in that assay.

Each structure is given as a SMILES string.

Experiment [1] deals with guinea pig INPP5K (Cavia porcellus, UniProt H0V8T7). The experiment is described as follows: Inorganic phosphate detection assay for phosphatase inhibition. It counts as biochemical. Particulars: 20 µM diC8-PI(3,4,5)P3, 20 min. The text has this: The protein purification is described in detail elsewhere. Briefly, full-length human INPP5K (amino acids 1–448, UniProt ID: Q9BT40), rat INPP5K (aa 1–446, UniProt ID: Q9R0B6), mouse INPP5K (aa 1–468, UniProt ID: Q8C5L6), hamster INPP5K (aa 1–453, UniProt ID: G3HTF6), guinea pig INPP5K (aa 1–473, UniProt ID: H0V8T7) containing an N-terminal FLAG-tag, full-length human SHIP2 (aa 1–1 258) containing a C-terminal FLAG-tag, and full-length human PIPP (amino acids 1–1 006) containing an N-terminal His8-tag were all cloned into the pcDNA3.4 expression vector and transiently expressed in Expi293 cells (Thermo Fisher Scientific). The PH domain of human TAPP1 (amino acids 180–404) containing an N-terminal GST-tag was expressed in a pGEX6P1 expression vector (GE Healthcare) in E. coli strain BL21 ((Merck KGaA, Darmstadt, Germany)), following IPTG induction at 37 °C for 5 h. All the FLAG-tagged INPP5Ks and hSHIP2 were purified using affinity columns containing DDDDK-tagged protein purification gel (MBL, Medical & Biological Laboratories Co., Ltd., Tokyo, Japan), followed by size-exclusion chromatography with Superdex 200 columns (GE Healthcare). His8-tagged hPIPP was purified using Ni–NTA Superflow (Qiagen) and Superdex 200 columns. The GST-tagged hTAPP1 domain was purified using a Glutathione Sepharose 4B (GE Healthcare) and Superdex 200 columns. The purity of the protein obtained was evaluated using SDS-PAGE.
Chain of guinea pig INPP5K (H0V8T7 entry or part of it): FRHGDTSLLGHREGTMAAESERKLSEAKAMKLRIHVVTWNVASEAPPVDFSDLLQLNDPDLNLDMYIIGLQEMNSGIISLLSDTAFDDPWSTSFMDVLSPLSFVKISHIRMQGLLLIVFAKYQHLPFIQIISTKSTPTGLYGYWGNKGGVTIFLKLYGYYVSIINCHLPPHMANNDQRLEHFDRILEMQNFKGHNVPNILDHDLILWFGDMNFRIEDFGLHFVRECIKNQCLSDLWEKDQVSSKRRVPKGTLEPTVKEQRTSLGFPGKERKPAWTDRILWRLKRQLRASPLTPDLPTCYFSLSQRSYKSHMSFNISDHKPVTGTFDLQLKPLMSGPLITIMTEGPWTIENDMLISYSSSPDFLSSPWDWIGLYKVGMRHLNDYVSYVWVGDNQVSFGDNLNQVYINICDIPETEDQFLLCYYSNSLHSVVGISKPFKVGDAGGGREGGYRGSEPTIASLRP
The release of inorganic phosphate was measured using a PiPer Phosphate Assay Kit (Thermo Fisher Scientific), according to the manufacturer’s instructions, but with some modifications. Enzyme reactions were performed in a final volume of 10 µL per well in a 384-well nonbinding black plates (Greiner Bio-One International, GmbH, Kremsmünster, Austria). The reaction mixtures containing 20 µM diC8-PI(3,4,5)P₃ and each enzyme (human INPP5K, mouse INPP5K, rat INPP5K, hamster INPP5K, guinea pig INPP5K, human SHIP2, or human PIPP) in reaction buffer (50 mM Tris–HCl pH 7.0, 150 mM NaCl, 7.5 mM MgCl₂, 0.03% Igepal CA-630, 0.03% gelatin), with or without various concentrations of inhibitor, were incubated for 20 min at room temperature. The reactions were then stopped and detection reactions were initiated by adding 5 µL of detection mix 1 (60 mM EDTA, 12 U/mL maltose phosphorylase, and 0.6 mM maltose in 100 mM Tris–HCl pH 8.0). After incubation for 60 min at room temperature, 5 µL of detection mix 2 (8 U/mL glucose oxidase, 0.8 U/mL HRP, and 100 µM Amplex Red in 100 mM Tris–HCl pH 8.0) was added, and the mixture was incubated for a further 30 min at room temperature in the dark. The fluorescence generated was measured using an Envision plate reader at 531/590 nm (excitation/emission), and the percentage inhibition was calculated as described above.

Experiment [2] addresses T1, full-length human INPP5K (INPP5K-full) (Homo sapiens, UniProt Q9BT40).
T1 construct: full-length human INPP5K (amino acids 1–448, UniProt ID: Q9BT40); FLAG (N); made in house; host or cells: Expi293 cells (pcDNA3.4, transient)
T1 sequence (Q9BT40 1-448): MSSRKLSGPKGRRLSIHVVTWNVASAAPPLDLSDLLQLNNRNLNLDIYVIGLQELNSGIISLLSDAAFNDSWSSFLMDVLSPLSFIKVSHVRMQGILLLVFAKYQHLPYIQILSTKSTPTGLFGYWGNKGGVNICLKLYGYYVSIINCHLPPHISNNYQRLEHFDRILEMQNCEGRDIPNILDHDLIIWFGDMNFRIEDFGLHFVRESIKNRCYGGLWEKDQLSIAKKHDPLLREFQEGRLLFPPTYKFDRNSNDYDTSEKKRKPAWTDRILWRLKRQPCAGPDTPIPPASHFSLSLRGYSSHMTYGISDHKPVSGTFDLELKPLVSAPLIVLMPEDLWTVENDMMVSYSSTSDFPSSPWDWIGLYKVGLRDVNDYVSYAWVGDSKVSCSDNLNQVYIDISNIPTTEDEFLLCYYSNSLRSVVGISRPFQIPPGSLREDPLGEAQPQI
Description: Fluorescence polarization assay to evaluate phosphatase inhibition. In kind it is biochemical. The note with it: 20 µM diC8-PI(3,4,5)P3, 30 min. The text has this:
The protein purification is described in detail elsewhere. Briefly, full-length human INPP5K (amino acids 1–448, UniProt ID: Q9BT40), rat INPP5K (aa 1–446, UniProt ID: Q9R0B6), mouse INPP5K (aa 1–468, UniProt ID: Q8C5L6), hamster INPP5K (aa 1–453, UniProt ID: G3HTF6), guinea pig INPP5K (aa 1–473, UniProt ID: H0V8T7) containing an N-terminal FLAG-tag, full-length human SHIP2 (aa 1–1 258) containing a C-terminal FLAG-tag, and full-length human PIPP (amino acids 1–1 006) containing an N-terminal His8-tag were all cloned into the pcDNA3.4 expression vector and transiently expressed in Expi293 cells (Thermo Fisher Scientific). […] The purity of the protein obtained was evaluated using SDS-PAGE.
HTS assays were performed as described previously. […] Fluorescence polarization was evaluated using an Envision plate reader (PerkinElmer, U.S. LLC, Shelton, CT, USA) at 531/595 nm (excitation/emission) and calculated as 1 000 × [(I||- (G × I⊥))/(I||+ (G × I⊥))], where I|| is the parallel intensity, I⊥ is the perpendicular intensity, and G = 2.25. The amount of diC8-PI(3,4)P₂ product (P) was determined by standard curve fitting, and the percentage inhibition was calculated using the following equation: 100 × (Pctrl—P)/(Pctrl—Pblank), where Pctrl is the no-inhibitor control and Pblank is the no-enzyme control. […]
Background: In fluorescence polarisation assays a small probe gives low polarisation when free and higher when bound to something large.

For the compound `CC(C)c1sc(NC(=O)c2ccccc2)c(C(=O)O)c1-c1ccccc1` [CPD-1], the results for the IC50 in experiment [1] and in experiment [2] were 59 µM and 3.7 µM, respectively.
